# Test results from patent publication US8846739B2, “TGR5 agonists” (Exelixis Patent Company LLC, priority 2009, dated 2014).
# Assays:
# h-TGR5 = target: T1, h-TGR5 (Homo sapiens, UniProt Q8TDU6); experiment: TGR5 cAMP Assay using Cisbio cAMP Dynamic 2 htrf assay kit; type: cell-based; settings: hTGR5CRE-luc HEK 293 cells
# T1 sequence (Q8TDU6 1-330): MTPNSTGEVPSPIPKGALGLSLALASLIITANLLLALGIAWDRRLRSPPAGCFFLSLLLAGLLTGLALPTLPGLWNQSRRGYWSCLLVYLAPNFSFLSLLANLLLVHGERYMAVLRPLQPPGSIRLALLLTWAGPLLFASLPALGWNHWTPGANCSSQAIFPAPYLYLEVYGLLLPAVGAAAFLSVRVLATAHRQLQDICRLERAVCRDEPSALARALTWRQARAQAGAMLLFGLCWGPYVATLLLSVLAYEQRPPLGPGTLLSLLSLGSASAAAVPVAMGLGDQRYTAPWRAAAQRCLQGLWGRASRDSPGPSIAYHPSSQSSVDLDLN
# human TGR5 (h-TGR5) = target: T2, human TGR5 (h-TGR5) (Homo sapiens, UniProt Q8TDU6); experiment: TGR5/CRE-Luciferase Assay; type: cell-based; settings: HEK 293 hTGR5/CRE-Luc cells, 6 hours incubation, read-out: CRE-Luc Agonist (EC50)
# T2 sequence (Q8TDU6 1-330): T1 sequence (Q8TDU6 1-330)
# In short: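 HEK 293 CRE-Luciferase cells stably expressing the receptor, plated in DMEM 18-20 h before assay, then exposed to serially diluted compounds (DMEM with 5% DMSO) for 6 h. Luciferase read-out after lysis; EC50 from dose-response.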
EC50 (h-TGR5),EC50 (human TGR5 (h-TGR5)),SMILES
< 0.1 µM,< 0.1 µM,"COc1cc(C(C)(C)c2cnc(CCc3c(F)cc(S(=O)(=O)N(CCC[N+](C)(C)C)[C@H](C)C(=O)O)cc3Cl)n2-c2ccc(F)cc2)ccc1Cl [Compound 17m, (R)-3-(N-(1-carboxyethyl)-3-chloro-4-(2-(5-(2-(4-chloro-3-methoxyphenyl)propan-2-yl)-1-(4-fluorophenyl)-1H-imidazol-2-yl)ethyl)-5-fluorophenylsulfonamido)-N,N,N-trimethylpropan-1-aminium 2,2,2-trifluoroacetate]"
< 0.1 µM,< 0.1 µM,"COc1cc(C(C)(C)c2cnc(SCc3c(F)cc(S(=O)(=O)N(CCC[n+]4ccn(C)c4)[C@H](C)C(=O)O)cc3Cl)n2-c2ccc(F)cc2)ccc1Cl [Compound 15b, (R)-3-(3-(N-(1-carboxyethyl)-3-chloro-4-((5-(2-(4-chloro-3-methoxyphenyl)propan-2-yl)-1-(4-fluorophenyl)-1H-imidazol-2-ylthio)methyl)-5-fluorophenylsulfonamido)propyl)-1-methyl-1H-imidazol-3-ium chloride]"
< 0.1 µM,< 0.1 µM,"COc1cc(C(C)(C)c2cnc(SCc3c(F)cc(OCC[N+](C)(C)C)cc3F)n2-c2ccc(F)cc2)ccc1Cl [Compound 20, 2-(4-((5-(2-(4-Chloro-3-methoxyphenyl)propan-2-yl)-1-(4-fluorophenyl)-1H-imidazol-2-ylthio)methyl)-3,5-difluorophenoxy)-N,N,N-trimethylethanaminium 2,2,2-trifluoroacetate]"
< 0.1 µM,< 0.1 µM,"COc1cc(C(C)(C)c2cnc(SCc3c(F)cc(C(=O)N[C@H]4CC[N+](C)(C)C4)cc3Cl)n2-c2ccc(F)cc2)ccc1Cl [Example 2f, (3S)-3-({[3-chloro-4-({[5-{1-[4-chloro-3-(methyloxy)phenyl]-1-methylethyl}-1-(4-fluorophenyl)-1H-imidazol-2-yl]thio}methyl)-5-fluorophenyl]carbonyl}amino)-1,1-dimethylpyrrolidinium]"
0.1 to 1 µM,< 0.1 µM,"COc1ccc(CN(CCC[N+](C)(C)C)S(=O)(=O)c2cc(F)c(CSc3ncc(C(C)(C)c4ccc(Cl)c(OC)c4)n3-c3ccc(F)cc3)c(F)c2)cc1 [Compound 14ae, 3-({[4-({[5-{1-[4-chloro-3-(methyloxy)phenyl]-1-methylethyl}-1-(4-fluorophenyl)-1H-imidazol-2-yl]thio}methyl)-3,5-difluorophenyl]sulfonyl}{[4-(methyloxy)phenyl]methyl}amino)-N,N,N-trimethylpropan-1-aminium]"
< 0.1 µM,< 0.1 µM,"COc1cc(C(C)(C)c2cnc(SCc3cc(S(=O)(=O)NCCC[N+](C)(C)C)c(Cl)cc3F)n2-c2ccc(F)cc2)ccc1Cl [Example 6q, 3-({[2-chloro-5-({[5-{1-[4-chloro-3-(methyloxy)phenyl]-1-methylethyl}-1-(4-fluorophenyl)-1H-imidazol-2-yl]thio}methyl)-4-fluorophenyl]sulfonyl}amino)-N,N,N-trimethylpropan-1-aminium]"
< 0.1 µM,< 0.1 µM,"COc1cc(C(C)(C)c2cnc(SCc3c(F)cc(S(=O)(=O)NCCC[n+]4ccn(C)c4)cc3Cl)n2-c2ccc(F)cc2)ccc1F [Compound 10, 3-(3-(3-chloro-5-fluoro-4-((5-(2-(4-fluoro-3-methoxyphenyl)propan-2-yl)-1-(4-fluorophenyl)-1H-imidazol-2-ylthio)methyl)phenylsulfonamido)propyl)-1-methyl-1H-imidazol-3-ium methanesulfonate]"
< 0.1 µM,< 0.1 µM,"COc1cc(C(C)(C)c2cnc(SCc3c(F)cc(S(=O)(=O)N(CCC[N+](C)(C)C)[C@@H](CO)C(=O)O)cc3F)n2-c2ccc(F)cc2)ccc1Cl [Compound 14t, 3-([(1S)-1-carboxy-2-hydroxyethyl]{[4-({[5-{1-[4-chloro-3-(methyloxy)phenyl]-1-methylethyl}-1-(4-fluorophenyl)-1H-imidazol-2-yl]thio}methyl)-3,5-difluorophenyl]sulfonyl}amino)-N,N,N-trimethylpropan-1-aminium]"
< 0.1 µM,< 0.1 µM,"COc1ccc(C(C)(C)c2cnc(SCc3c(F)cc(CCC[N+](C)(C)C)cc3F)n2-c2ccc(F)cc2)cc1Cl [Compound 19c, 3-(4-((5-(2-(3-chloro-4-methoxyphenyl)propan-2-yl)-1-(4-fluorophenyl)-1H-imidazol-2-ylthio)methyl)-3,5-difluorophenyl)-N,N,N-trimethylpropan-1-aminium 2,2,2-trifluoroacetate]"
< 0.1 µM,< 0.1 µM,"COc1cc(-n2c(C(C)(C)c3ccc(Cl)c(Cl)c3)cnc2SCc2c(F)cc(C(=O)N[C@H]3CC[N+](C)(C)C3)cc2Cl)ccc1F [Example 2r, (3S)-3-[({3-chloro-4-[({5-[1-(3,4-dichlorophenyl)-1-methylethyl]-1-[4-fluoro-3-(methyloxy)phenyl]-1H-imidazol-2-yl}thio)methyl]-5-fluorophenyl}carbonyl)amino]-1,1-dimethylpyrrolidinium]"
< 0.1 µM,< 0.1 µM,"CC[N+](C)(C)CCCN(C)S(=O)(=O)c1cc(F)c(CSc2ncc(C(C)(C)c3ccc(Cl)c(OC)c3)n2-c2ccc(F)cc2)c(Cl)c1 [Compound 11m, 3-[{[3-chloro-4-({[5-{1-[4-chloro-3-(methyloxy)phenyl]-1-methylethyl}-1-(4-fluorophenyl)-1H-imidazol-2-yl]thio}methyl)-5-fluorophenyl)sulfonyl}(methyl)amino]-N-ethyl-N,N-dimethylpropan-1-aminium]"
< 0.1 µM,< 0.1 µM,"CC[N+](C)(C)C1CCN(S(=O)(=O)c2cc(F)c(CSc3ncc(C(C)(C)c4ccc(F)c(OC)c4)n3-c3ccc(F)cc3)c(Cl)c2)CC1 [Compound 11q, 1-{[3-chloro-5-fluoro-4-({[5-{1-[4-fluoro-3-(methyloxy)phenyl]-1-methylethyl}-1-(4-fluorophenyl)-1H-imidazol-2-yl]thio}methyl)phenyl]sulfonyl}-N-ethyl-N,N-dimethylpiperidin-4-aminium]"
< 0.1 µM,< 0.1 µM,"COc1cc(C(C)(C)c2cnc(SCc3c(F)cc(S(=O)(=O)N(C)[C@H](CCCC[N+](C)(C)C)C(=O)O)cc3Cl)n2-c2ccc(F)cc2)ccc1Cl [Compound 17j, (R)-5-carboxy-5-(3-chloro-4-((5-(2-(4-chloro-3-methoxyphenyl)propan-2-yl)-1-(4-fluorophenyl)-1H-imidazol-2-ylthio)methyl)-5-fluoro-N-methylphenylsulfonamido)-N,N,N-trimethylpentan-1-aminium 2,2,2-trifluoroacetate]"
< 0.1 µM,< 0.1 µM,"COc1cc(C(C)(C)c2cnc(SCc3c(F)cc(C(=O)N[C@@H]4CC[N+](C)(C)C4)cc3Cl)n2-c2ccc(F)cc2)ccc1Cl [Example 2h, (3R)-3-({[3-chloro-4-({[5-{1-[4-chloro-3-(methyloxy)phenyl]-1-methylethyl}-1-(4-fluorophenyl)-1H-imidazol-2-yl]thio}methyl)-5-fluorophenyl]carbonyl}amino)-1,1-dimethylpyrrolidinium]"
< 0.1 µM,< 0.1 µM,"COc1cc(C(C)(C)c2cnc(SCc3c(F)cc(S(=O)(=O)NCCC[N+](C)(C)C)cc3Cl)n2-c2ccc(F)cc2)ccc1F [Example 6a, 3-({[3-chloro-5-fluoro-4-({[5-{1-[4-fluoro-3-(methyloxy)phenyl]-1-methylethyl}-1-(4-fluorophenyl)-1H-imidazol-2-yl]thio}methyl)phenyl]sulfonyl}amino)-N,N,N-trimethylpropan-1-aminium]"
< 0.1 µM,< 0.1 µM,"COc1cc(C(C)(C)c2cnc(SCc3c(F)cc(S(=O)(=O)N(CCC[N+](C)(C)C)CC(=O)O)cc3Cl)n2-c2ccc(F)cc2)ccc1Cl [Compound 14s, 3-[(carboxymethyl){[3-chloro-4-({[5-{1-[4-chloro-3-(methyloxy)phenyl]-1-methylethyl}-1-(4-fluorophenyl)-1H-imidazol-2-yl]thio}methyl)-5-fluorophenyl]sulfonyl}amino]-N,N,N-trimethylpropan-1-aminium]"
< 0.1 µM,< 0.1 µM,"COc1cc(C(C)(C)c2cnc(SCc3c(F)cc(S(=O)(=O)NCC4CC[N+](C)(C)CC4)cc3Cl)n2-c2ccc(F)cc2)ccc1F [Compound 11s, 4-[({[3-chloro-5-fluoro-4-({[5-{1-[4-fluoro-3-(methyloxy)phenyl]-1-methylethyl}-1-(4-fluorophenyl)-1H-imidazol-2-yl]thio}methyl)phenyl]sulfonyl}amino)methyl]-1,1-dimethylpiperidinium]"
< 0.1 µM,< 0.1 µM,"COc1cc(C(C)(C)c2cnc(SCc3c(F)cc(S(=O)(=O)N(C)[C@@H](CCCC[N+](C)(C)C)C(=O)O)cc3Cl)n2-c2ccc(F)cc2)ccc1Cl [Compound 17f, (S)-5-carboxy-5-(3-chloro-4-((5-(2-(4-chloro-3-methoxyphenyl)propan-2-yl)-1-(4-fluorophenyl)-1H-imidazol-2-ylthio)methyl)-5-fluoro-N-methylphenylsulfonamido)-N,N,N-trimethylpentan-1-aminium 2,2,2-trifluoroacetate]"
